# Experimental data from patent publication US8586719B2, “Triterpenes for modulating gene expression and cell membrane, and as antiprotozoal agents” (Pacific Arrow Limited, priority 2005, dated 2013).
# What was measured:
# [1] = test system: ES2 (human ovarian cancer) xenograft tumor; assay: Genesis of blood vessels in xenograft tumor treated with compound Y; assay type: in vivo, Athymic Nu/Nu mice; conditions: ES2 i.p. xenograft, 2.5 mg/kg i.p. daily days 10-15 and 18-22, H&E sections
# Method: Method: Athymic Nu/Nu mice (5-6 weeks old) are divided into two groups (1 and 2) with 5 animals in each group. On day 0, all mice were transplanted intra-peritoneally with one million ES2 (human ovarian cancer) cells. Animals were randomly divided into two groups:
# Group 2: Drug-treatment group. On days 10-15 and 18-22, animals received daily drug administration of Xanifolia-Y, by i.p. route at dosage of 2.5 mg/kg.
# Animals with high tumor burden were euthanized and solid tumors were taken out from these mice (between 18-27 days). Tumor tissues fixed with formalin at room temperature. The fixed tissues were sectioned and stained with Haematoxylin and eosin (H&E). The red blood cells inside the micro blood vessels were identified under a microscope.
# tumor bearing mice = assay: Animal studies in tumor bearing mice; assay type: in vivo
# Source text: (Reference Experiments 7, 8, 9 in U.S. Ser. Nos. 11/683,198, filed on Mar. 7, 2007,). The animals died sooner if the treatment of Xanifolia-Y was delayed (comparing results of treatments started from 1, 4 or 10 days after tumor inoculation). […] Ovarian carcinoma cells express high levels of adhesion molecules. Adhesion proteins are present in both cancer cells and mesothelial cells. While the lost of adhesion blocks of the protein accessibility due to a result of modulating by Xanifolia-Y, In an embodiment, the interaction of Xanifolia-Y with membrane alter the adhesion protein's binding site(s).
# Fibronectin [2] = assay: Fibronectin secretion from ES2 cells; assay type: cell-based, human
# Method: (§1) Reduction of Fibronectin secretion from ES2 cells after xanifolia-Y treatment. • (Results of F1, F3, F4, F5, F7, F8, F11, F12A, F15, F16, F17) Data in PCT/US2008/002086, 1188-ALA-PCT, filed Feb. 15, 2008 are incorporated herein by reference • (F11) For lung carcinoma cells (H460), at concentration of 20 ug/ml, there are inhibitions of Fibronectin secretion ranged from 20-60%. • (F12A) For bladder carcinoma cells (HTB-9), Xanifolia-Y (10 ug/ml) inhibits 50% of Fibronectin secretion. • (F15) In liver HepG2 cells. 10 ug/ml of xanifolia-Y inhibits 42% secretion of Fibronectin. • (F16) Incubation of brain glioblastoma T98G cells with 10 ug/ml of xanifolia-Y inhibits 27% Fibronectin secretion and with 20 ug/ml Y inhibits 74% Fibronectin secretion. • (F17) For skin SK-MeI-5 cells, the inhibition is 40-57% with 20 ug/ml of Xanifolia-Y.
# Fibronectin [3] = assay: Fibronectin secretion, brain glioblastoma T98G cells; assay type: cell-based, human; conditions: Homo sapiens, T98G
# Method: as §1
# [4] = test system: insulin-like growth factor binding protein 3 (IGFBP3); assay: Microarray gene expression in ES2 cells: IGFBP3; assay type: cell-based, human
# Source text: (§2) The composition comprises bioactive compounds from natural plants or synthesis. The majority of the plants are from the Sapindaceae family, which has 140-150 genera with 1400-2000 species. The program is based on our purification methods and biological assays including the MTT assay See International Application No. PCT/US05/31900, filed Sep. 7, 2005, U.S. Ser. No. 11/289,142, filed Nov. 28, 2005, and U.S. Ser. No. 11/131,551, filed May 17, 2005, and PCT/US2008/002086, 1188-ALA-PCT, filed Feb. 15, 2008, the contents of which are incorporated herein by reference. The details of Analysis of gene expression of ES2 cells after Y-treatment by Microarray, Data Analysis Methods and Western blot in PCT/US2008/002086, 1188-ALA-PCT, filed Feb. 15, 2008, the contents of which are incorporated herein by reference
# [5] = test system: insulin-like growth factor binding protein 6 (IGFBP6); assay: Microarray gene expression in ES2 cells: IGFBP6; assay type: cell-based, human; conditions: probe set 203851_at
# Source text: as §2
# angiopoietin 2 = assay: Microarray gene expression in ES2 cells: angiopoietin 2; assay type: cell-based, human; conditions: micro array
# Source text: as §2
# (§3) Angiogenesis is a process involving the growth of new blood vessels. It is a normal process in growth and development. However, this is also a fundamental step in the transition of tumors from a dormant state to a malignant state. The angiopoietins are protein growth factors that modulate angiogenesis. […]
# angiopoietin-like 1 = assay: Microarray gene expression in ES2 cells: angiopoietin-like 1; assay type: cell-based, human; conditions: micro array
# Source text: as §2, §3
# leptin = assay: Expression of leptin; assay type: cell-based
# Angiopoietin 2 (Ang2) = assay: Up regulation of Angiopoietin 2 (Ang2) in ES2 cells; assay type: cell-based, human; conditions: study in PCT/US2008/002086
# Source text: The results of study in PCT/US2008/002086, 1188-ALA-PCT, filed Feb. 15, 2008 are incorporated herein by reference.
# ANGPT2 (angiopoietin 2) = assay: Gene expression by Real-time PCR: ANGPT2; assay type: cell-based; conditions: DMSO control = 100
# Source text: (§4) Determination of gene expression by Real-time PCR method (Brilliant QPCR, Agilent Technologies): The real-time polymerase chain reactions further confirm the results obtained from micro array analysis. The Real-time PCR results (shown below) confirmed that Compound Y3 and YM increase the expression of the genes: ANGPT2, DDIT3, LIF and NFKB1Z
# [6] = test system: DDIT3 (DNA-damage-inducible transcript 3); assay: Gene expression by Real-time PCR: DDIT3; assay type: cell-based; conditions: DMSO control = 100
# Source text: as §4
# [7] = test system: LIF (Leukemia inhibitory factor); assay: Gene expression by Real-time PCR: LIF; assay type: cell-based; conditions: DMSO control = 100
# Source text: as §4
smiles,measurement,setting,value
"C/C=C(/C)C(=O)O[C@H]1[C@H](OC(=O)/C(C)=C\C)[C@@]2(CO)C(CC1(C)C)C1=CCC3[C@@]4(C)CC[C@H](O[C@@H]5OC(C(=O)O)[C@@H](O)[C@@H](O[C@@H]6O[C@@H](CO)[C@@H](O)C6O)C5O[C@@H]5OC(CO)[C@H](O)[C@@H](O)C5O)C(C)(C)C4CC[C@@]3(C)[C@]1(C)[C@@H](O)[C@H]2O (stereo partly drawn) [Y, 3-O-[β-D-galactopyranosyl(1→2)]-α-L-arabinofuranosy (1→3)-β-D-glucuronopyranosyl-21,22-O-diangeloyl-3β, 15α, 16α, 21β, 22α, 28-hexahydroxyolean-12-ene]",blood vessels in tumor sections,[1]; listed as Xanifolia Y,More blood vessels were observed in the control Group 1 than those in the drug-treated Group 2
same,blood vessels in tumor sections,[1]; listed as Xanifolia-Y,more blood vessels were observed in the control Group1 than those in the drug-treated Group 2
same,life span of tumor bearing mice,"tumor bearing mice; Experiments 7, 8, 9 of U.S. Ser. No. 11/683,198",extended the life span
same,migration or metastasis of the inoculated cancer cells,"tumor bearing mice; treatment started 1, 4 or 10 days after tumor inoculation",inhibits migration or metastasis
same,Fibronectin secretion from ES2 cells,Fibronectin [2],Reduction
same,inhibition at 10 µg/mL,Fibronectin [3]; read-out: % inhibition of Fibronectin secretion,27%
same,inhibition at 20 µg/mL,Fibronectin [3]; read-out: inhibition of Fibronectin secretion,74%
same,"IGFBP3 expression, treated/D (DMSO control)",[4]; probe set 210095_s_at,−4.0
same,"IGFBP3 expression, treated/D (DMSO control)",[4]; probe set 212143_s_at,−3.7
same,"IGFBP6 expression, treated/D (DMSO control)",[5],−1.3
same,gene expression of angiopoietin 2,angiopoietin 2,promote
same,gene expression of angiopoietin-like 1,angiopoietin-like 1,inhibit
same,expression of leptin,leptin,inhibit
same,Angiopoietin 2 (Ang2) in ES2 cells,Angiopoietin 2 (Ang2),Up regulation
same,"ANGPT2 expression, % of control",ANGPT2 (angiopoietin 2),300 % of control
same,"DDIT3 expression, % of control",[6],213 % of control
same,"LIF expression, % of control",[7],163 % of control
